Data published in ChEMBL document CHEMBL1201862, “PubChem BioAssay data set” (2004).
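Grown in 96-well plates, cells were treated for 48 hours with each compound at five concentrations. Insufficient inhibition: endpoint recorded as highest concentration tested. GI50 is the concentration that inhibits growth by half.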 The source made the active and inactive calls. Cut-off read from the data, not from the text of the source: active = GI50 up to about 1.1 µM and inactive = higher.

Legend:
Experiment in all cases: DTP human tumour cell line panel, 48 h
[1] = test system: DU-145
[2] = test system: NCI-H522
[3] = test system: OVCAR-8
[4] = test system: LOX IMVI
[5] = test system: UACC-257
[6] = test system: OVCAR-4
[7] = test system: SK-MEL-28
[8] = test system: K562
[9] = test system: SW-620
[10] = test system: SNB-75
[11] = test system: HCT-116
[12] = test system: SF-295
[13] = test system: A549
[14] = test system: SK-OV-3
[15] = test system: NCI-H226
[16] = test system: OVCAR-3
[17] = test system: HCT-15
[18] = test system: U-251
[19] = test system: PC-3
[20] = test system: SNB-19
[21] = test system: RXF 393
[22] = test system: MCF7
[23] = test system: SF-268
[24] = test system: COLO 205
[25] = test system: MDA-MB-231
[26] = test system: HOP-62
[27] = test system: HOP-92
[28] = test system: BT-549
[29] = test system: HL-60
[30] = test system: SN12C
[31] = test system: EKVX
[32] = test system: 786-0
[33] = test system: ACHN
[34] = test system: NCI-H23
[35] = test system: T47D
[36] = test system: CAKI-1
[37] = test system: MOLT-4
[38] = test system: SR
[39] = test system: NCI-H460
[40] = test system: UO-31
[41] = test system: OVCAR-5
[42] = test system: SK-MEL-2
[43] = test system: Hs-578T
[44] = test system: SF-539
[45] = test system: TK-10
[46] = test system: MDA-N
[47] = test system: CCRF-CEM
[48] = test system: UACC-62
[49] = test system: NCI/ADR-RES
[50] = test system: A498
[51] = test system: RPMI-8226
[52] = test system: KM12
[53] = test system: SK-MEL-5
[54] = test system: MDA-MB-435
[55] = test system: IGROV-1
[56] = test system: M14
[57] = test system: HT-29
[58] = test system: HCC 2998
[59] = test system: Malme-3M

NCCCN(CCCCN(CCCN)CCCc1ccccc1)CCCc1ccccc1
GI50 [1]: 8.11 µM (inactive)
GI50 [2]: 2.09 µM (inactive)
GI50 [3]: 8.71 µM (inactive)
GI50 [4]: 2.36 µM (inactive)
GI50 [5]: 1.79 µM (inactive)
GI50 [6]: 4.89 µM (inactive)
GI50 [7]: 1.51 µM (inactive)
GI50 [8]: 1.77 µM (inactive)
GI50 [9]: 2.86 µM (inactive)
GI50 [10]: 1.93 µM (inactive)
GI50 [11]: 1.82 µM (inactive)
GI50 [12]: 1.69 µM (inactive)
GI50 [13]: 3.23 µM (inactive)
GI50 [14]: 4.16 µM (inactive)
GI50 [15]: 17.6 µM (inactive)
GI50 [16]: 1.73 µM (inactive)
GI50 [17]: 1.96 µM
GI50 [18]: 1.98 µM (inactive)
GI50 [19]: 3.22 µM (inactive)
GI50 [20]: 1.19 µM (inactive)
GI50 [21]: 2.37 µM (inactive)
GI50 [22]: 1.96 µM (inactive)
GI50 [23]: 3.07 µM (inactive)
GI50 [24]: 1.56 µM (inactive)
GI50 [25]: 2.02 µM (inactive)
GI50 [26]: 9.89 µM (inactive)
GI50 [27]: 6.97 µM (inactive)
GI50 [28]: 3.03 µM (inactive)
GI50 [29]: 1.15 µM (inactive)
GI50 [30]: 3.9 µM (inactive)
GI50 [31]: 2.99 µM (inactive)
GI50 [32]: 1.7 µM (inactive)
GI50 [33]: 2.68 µM (inactive)
GI50 [34]: 4.32 µM (inactive)
GI50 [35]: 6.84 µM (inactive)
GI50 [36]: 2.15 µM (inactive)
GI50 [37]: 2 µM (inactive)
GI50 [38]: 2.31 µM (inactive)
GI50 [39]: 1.42 µM (inactive)
GI50 [40]: 2.19 µM (inactive)
GI50 [41]: 11 µM (inactive)
GI50 [42]: 1.69 µM (inactive)
GI50 [43]: 1.81 µM (inactive)
GI50 [44]: 1.86 µM (inactive)
GI50 [45]: 12.4 µM (inactive)
GI50 [46]: 1.74 µM (inactive)
GI50 [47]: 2.49 µM (inactive)
GI50 [48]: 1.74 µM (inactive)
GI50 [49]: 20.1 µM (inactive)
GI50 [50]: 13.1 µM (inactive)
GI50 [51]: 2.43 µM (inactive)
GI50 [52]: 2.55 µM (inactive)
GI50 [53]: 1.83 µM (inactive)
GI50 [54]: 1.74 µM (inactive)
GI50 [55]: 2.65 µM (inactive)
GI50 [56]: 1.76 µM (inactive)
GI50 [57]: 1.85 µM (inactive)
GI50 [58]: 1.62 µM (inactive)

COC(=O)C1(SC)C2CCC3C2CCC31 (stereo not drawn)
GI50 [1]: > 100 µM (inactive)
GI50 [2]: > 100 µM (inactive)
GI50 [3]: > 100 µM (inactive)
GI50 [4]: > 100 µM (inactive)
GI50 [5]: > 100 µM (inactive)
GI50 [6]: > 100 µM (inactive)
GI50 [7]: > 100 µM (inactive)
GI50 [8]: > 100 µM (inactive)
GI50 [9]: > 100 µM (inactive)
GI50 [10]: > 100 µM (inactive)
GI50 [11]: > 100 µM (inactive)
GI50 [12]: > 100 µM (inactive)
GI50 [13]: > 100 µM (inactive)
GI50 [14]: > 100 µM (inactive)
GI50 [15]: > 100 µM (inactive)
GI50 [16]: > 100 µM (inactive)
GI50 [17]: > 100 µM
GI50 [18]: > 100 µM (inactive)
GI50 [19]: > 100 µM (inactive)
GI50 [20]: > 100 µM (inactive)
GI50 [21]: > 100 µM (inactive)
GI50 [22]: > 100 µM (inactive)
GI50 [23]: > 100 µM (inactive)
GI50 [24]: > 100 µM (inactive)
GI50 [25]: > 100 µM (inactive)
GI50 [26]: > 100 µM (inactive)
GI50 [27]: > 100 µM (inactive)
GI50 [28]: > 100 µM (inactive)
GI50 [29]: > 100 µM (inactive)
GI50 [30]: > 100 µM (inactive)
GI50 [31]: > 100 µM (inactive)
GI50 [32]: > 100 µM (inactive)
GI50 [33]: > 100 µM (inactive)
GI50 [34]: > 100 µM (inactive)
GI50 [35]: > 100 µM (inactive)
GI50 [36]: > 100 µM (inactive)
GI50 [37]: > 100 µM (inactive)
GI50 [38]: > 100 µM (inactive)
GI50 [39]: > 100 µM (inactive)
GI50 [40]: > 100 µM (inactive)
GI50 [41]: > 100 µM (inactive)
GI50 [42]: > 100 µM (inactive)
GI50 [43]: > 100 µM (inactive)
GI50 [44]: > 100 µM (inactive)
GI50 [46]: > 100 µM (inactive)
GI50 [47]: > 100 µM (inactive)
GI50 [49]: > 100 µM (inactive)
GI50 [50]: > 100 µM (inactive)
GI50 [51]: > 100 µM (inactive)
GI50 [59]: > 100 µM (inactive)
GI50 [53]: > 100 µM (inactive)
GI50 [54]: > 100 µM (inactive)
GI50 [55]: > 100 µM (inactive)
GI50 [56]: > 100 µM (inactive)
GI50 [58]: > 100 µM (inactive)

CCOC(=O)CCC(NC(=O)N1CCN(c2c(C)nc(C)nc2O)CC1)C(=O)OCC (stereo not drawn)
GI50 [1]: > 100 µM (inactive)
GI50 [2]: > 100 µM (inactive)
GI50 [3]: > 100 µM (inactive)
GI50 [4]: > 100 µM (inactive)
GI50 [5]: > 100 µM (inactive)
GI50 [6]: > 100 µM (inactive)
GI50 [7]: > 100 µM (inactive)
GI50 [8]: > 100 µM (inactive)
GI50 [9]: > 100 µM (inactive)
GI50 [10]: < 0.01 µM (active)
GI50 [11]: > 100 µM (inactive)
GI50 [12]: > 100 µM (inactive)
GI50 [13]: > 100 µM (inactive)
GI50 [14]: > 100 µM (inactive)
GI50 [15]: > 100 µM (inactive)
GI50 [16]: > 100 µM (inactive)
GI50 [17]: > 100 µM
GI50 [18]: > 100 µM (inactive)
GI50 [19]: > 100 µM (inactive)
GI50 [20]: > 100 µM (inactive)
GI50 [21]: > 100 µM (inactive)
GI50 [22]: > 100 µM (inactive)
GI50 [23]: > 100 µM (inactive)
GI50 [24]: > 100 µM (inactive)
GI50 [25]: > 100 µM (inactive)
GI50 [26]: > 100 µM (inactive)
GI50 [27]: > 100 µM (inactive)
GI50 [28]: > 100 µM (inactive)
GI50 [29]: > 100 µM (inactive)
GI50 [30]: > 100 µM (inactive)
GI50 [31]: > 100 µM (inactive)
GI50 [32]: > 100 µM (inactive)
GI50 [33]: > 100 µM (inactive)
GI50 [34]: > 100 µM (inactive)
GI50 [35]: > 100 µM (inactive)
GI50 [36]: > 100 µM (inactive)
GI50 [37]: > 100 µM (inactive)
GI50 [38]: > 100 µM (inactive)
GI50 [39]: > 100 µM (inactive)
GI50 [40]: > 100 µM (inactive)
GI50 [41]: > 100 µM (inactive)
GI50 [43]: > 100 µM (inactive)
GI50 [44]: > 100 µM (inactive)
GI50 [45]: > 100 µM (inactive)
GI50 [46]: > 100 µM (inactive)
GI50 [47]: > 100 µM (inactive)
GI50 [48]: > 100 µM (inactive)
GI50 [49]: > 100 µM (inactive)
GI50 [50]: > 100 µM (inactive)
GI50 [51]: > 100 µM (inactive)
GI50 [52]: > 100 µM (inactive)
GI50 [59]: > 100 µM (inactive)
GI50 [54]: > 100 µM (inactive)
GI50 [55]: > 100 µM (inactive)
GI50 [56]: > 100 µM (inactive)
GI50 [57]: > 100 µM (inactive)
GI50 [58]: > 100 µM (inactive)

Cc1ccc(S(=O)(=O)N2CCN(S(=O)(=O)c3ccc(C)cc3)CCN(S(=O)(=O)c3ccc(C)cc3)Cc3cc(Br)c(Br)cc3CN(S(=O)(=O)c3ccc(C)cc3)CC2)cc1
GI50 [1]: > 100 µM (inactive)
GI50 [2]: 52 µM (inactive)
GI50 [3]: > 100 µM (inactive)
GI50 [4]: 79.4 µM (inactive)
GI50 [5]: 37.2 µM (inactive)
GI50 [6]: 44.1 µM (inactive)
GI50 [7]: > 100 µM (inactive)
GI50 [8]: > 100 µM (inactive)
GI50 [9]: 97.7 µM (inactive)
GI50 [10]: 55.6 µM (inactive)
GI50 [11]: > 100 µM (inactive)
GI50 [12]: > 100 µM (inactive)
GI50 [13]: > 100 µM (inactive)
GI50 [14]: > 100 µM (inactive)
GI50 [15]: 46.6 µM (inactive)
GI50 [16]: > 100 µM (inactive)
GI50 [17]: > 100 µM
GI50 [18]: 82 µM (inactive)
GI50 [19]: 46.9 µM (inactive)
GI50 [20]: 43.5 µM (inactive)
GI50 [21]: > 100 µM (inactive)
GI50 [22]: > 100 µM (inactive)
GI50 [23]: > 100 µM (inactive)
GI50 [24]: > 100 µM (inactive)
GI50 [25]: 23.3 µM (inactive)
GI50 [26]: > 100 µM (inactive)
GI50 [27]: 23.6 µM (inactive)
GI50 [28]: > 100 µM (inactive)
GI50 [29]: > 100 µM (inactive)
GI50 [30]: > 100 µM (inactive)
GI50 [31]: 68.2 µM (inactive)
GI50 [32]: > 100 µM (inactive)
GI50 [33]: > 100 µM (inactive)
GI50 [34]: > 100 µM (inactive)
GI50 [35]: > 100 µM (inactive)
GI50 [36]: > 100 µM (inactive)
GI50 [37]: > 100 µM (inactive)
GI50 [38]: > 100 µM (inactive)
GI50 [39]: > 100 µM (inactive)
GI50 [40]: > 100 µM (inactive)
GI50 [41]: 92.3 µM (inactive)
GI50 [43]: > 100 µM (inactive)
GI50 [44]: > 100 µM (inactive)
GI50 [45]: 69.5 µM (inactive)
GI50 [46]: 66.8 µM (inactive)
GI50 [47]: > 100 µM (inactive)
GI50 [48]: > 100 µM (inactive)
GI50 [49]: > 100 µM (inactive)
GI50 [50]: > 100 µM (inactive)
GI50 [51]: > 100 µM (inactive)
GI50 [52]: 97.7 µM (inactive)
GI50 [59]: 44.9 µM (inactive)
GI50 [53]: > 100 µM (inactive)
GI50 [54]: > 100 µM (inactive)
GI50 [55]: 85.5 µM (inactive)
GI50 [56]: 19.1 µM (inactive)
GI50 [57]: > 100 µM (inactive)
GI50 [58]: > 100 µM (inactive)
